Data taken from publication PMC3914206.

How the values were obtained:
Type in all cases: binding
Details in all cases: Compound Concentration 10 µM
[1] = biological target: T1, panel of 442 kinases (Homo sapiens, UniProt P51451)
T1 construct: purchased KINOMEscan
Text: (§1) We assessed the selectivity of members of this scaffold using the KINOMEscan methodology across a near comprehensive panel of 442 kinases [[18,27]].

[2] = biological target: T2, panel of 442 kinases (Homo sapiens, UniProt P31751)
T2 construct: purchased KINOMEscan
Text: as §1

[3] = biological target: T3, panel of 442 kinases (Homo sapiens, UniProt P48736)
T3 construct: purchased KINOMEscan
Text: as §1

T3 sequence (P48736 whole entry): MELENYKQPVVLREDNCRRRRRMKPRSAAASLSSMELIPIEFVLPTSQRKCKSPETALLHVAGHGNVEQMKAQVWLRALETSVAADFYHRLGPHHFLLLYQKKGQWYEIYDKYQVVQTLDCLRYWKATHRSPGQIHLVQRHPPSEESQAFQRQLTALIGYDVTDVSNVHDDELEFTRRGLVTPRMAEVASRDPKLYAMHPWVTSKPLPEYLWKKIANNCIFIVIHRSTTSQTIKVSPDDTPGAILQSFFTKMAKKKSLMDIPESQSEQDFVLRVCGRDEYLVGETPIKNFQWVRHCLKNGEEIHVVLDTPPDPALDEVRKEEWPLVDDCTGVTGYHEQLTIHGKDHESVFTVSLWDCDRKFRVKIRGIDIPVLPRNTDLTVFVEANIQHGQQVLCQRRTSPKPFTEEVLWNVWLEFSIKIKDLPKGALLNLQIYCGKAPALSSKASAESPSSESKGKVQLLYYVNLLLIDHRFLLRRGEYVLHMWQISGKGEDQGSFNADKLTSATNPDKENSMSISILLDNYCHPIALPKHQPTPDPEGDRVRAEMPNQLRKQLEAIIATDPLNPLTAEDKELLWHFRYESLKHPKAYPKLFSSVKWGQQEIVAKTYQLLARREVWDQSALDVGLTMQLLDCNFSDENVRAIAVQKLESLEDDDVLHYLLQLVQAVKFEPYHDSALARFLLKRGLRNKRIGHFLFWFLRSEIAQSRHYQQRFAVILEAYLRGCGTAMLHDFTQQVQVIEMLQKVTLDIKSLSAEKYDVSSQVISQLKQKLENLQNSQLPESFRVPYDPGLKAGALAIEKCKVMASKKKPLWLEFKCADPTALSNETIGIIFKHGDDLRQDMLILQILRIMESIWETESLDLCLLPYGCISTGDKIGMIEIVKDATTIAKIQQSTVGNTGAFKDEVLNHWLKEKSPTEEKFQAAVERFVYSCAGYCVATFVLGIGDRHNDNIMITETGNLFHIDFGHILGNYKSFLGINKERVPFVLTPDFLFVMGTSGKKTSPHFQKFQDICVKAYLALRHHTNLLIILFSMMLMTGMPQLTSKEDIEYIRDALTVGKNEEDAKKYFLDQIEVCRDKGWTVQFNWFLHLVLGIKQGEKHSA
T2 sequence (P31751 whole entry): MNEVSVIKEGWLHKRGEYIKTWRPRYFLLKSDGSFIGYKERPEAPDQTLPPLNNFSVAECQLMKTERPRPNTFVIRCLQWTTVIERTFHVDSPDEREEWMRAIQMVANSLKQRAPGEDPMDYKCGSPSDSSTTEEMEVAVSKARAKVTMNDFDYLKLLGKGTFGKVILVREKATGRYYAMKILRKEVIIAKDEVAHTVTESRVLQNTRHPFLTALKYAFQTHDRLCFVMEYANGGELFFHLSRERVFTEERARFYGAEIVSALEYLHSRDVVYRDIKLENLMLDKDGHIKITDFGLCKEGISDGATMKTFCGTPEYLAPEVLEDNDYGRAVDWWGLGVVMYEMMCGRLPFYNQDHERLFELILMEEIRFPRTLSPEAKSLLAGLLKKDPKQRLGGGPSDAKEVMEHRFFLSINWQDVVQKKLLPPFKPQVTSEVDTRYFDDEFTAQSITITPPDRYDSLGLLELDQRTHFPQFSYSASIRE
T1 sequence (P51451 whole entry): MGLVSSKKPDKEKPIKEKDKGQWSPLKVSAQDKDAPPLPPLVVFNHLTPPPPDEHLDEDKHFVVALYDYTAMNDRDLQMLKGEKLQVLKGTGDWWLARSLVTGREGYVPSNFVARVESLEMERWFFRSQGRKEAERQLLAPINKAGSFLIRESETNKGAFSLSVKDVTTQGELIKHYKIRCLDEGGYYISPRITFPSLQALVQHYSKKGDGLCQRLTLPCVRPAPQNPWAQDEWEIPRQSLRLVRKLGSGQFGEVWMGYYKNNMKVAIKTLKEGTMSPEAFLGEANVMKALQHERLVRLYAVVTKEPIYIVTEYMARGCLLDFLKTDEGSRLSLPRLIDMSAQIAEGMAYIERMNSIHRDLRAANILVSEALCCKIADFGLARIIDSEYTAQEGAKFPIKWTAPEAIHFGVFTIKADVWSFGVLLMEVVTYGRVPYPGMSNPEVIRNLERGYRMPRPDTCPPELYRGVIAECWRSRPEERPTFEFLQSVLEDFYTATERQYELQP

| SMILES | KINOMEscan: BLK [1] | KINOMEscan: AKT2 [2] | KINOMEscan: PIK3CG [3] |
| --- | --- | --- | --- |
| COc1cc(C(=O)N2CCC(N3CCN(C)CC3)CC2)ccc1Nc1ncc2c(n1)N(C)c1ccccc1C(=O)N2C [15 (LRRK2-IN-1)] | 97 | 100 | 15 |
| COc1cc(C(=O)N2CCC(N3CCN(C)CC3)CC2)ccc1Nc1ncc2c(n1)N1CCc3cccc(c31)C(=O)N2C [Compound 24] | – | – | 30 |
| COc1cc(C(=O)N2CCC(N3CCN(C)CC3)CC2)ccc1Nc1ncc2c(n1)N(C1CCCC1)c1ccccc1C(=O)N2C [Compound 25, 11-cyclopentyl-2-((2-methoxy-4-(4-(4-methylpiperazin-1-yl)piperidine-1-carbonyl)phenyl)amino)-5-methyl-5H-benzo[e]pyrimido[5,4-b][1,4]diazepin-6(11H)-one] | 100 | 100 | 80 |
| CCOc1cc(C(=O)N2CCC(N3CCN(C)CC3)CC2)ccc1Nc1ncc2c(n1)N(C1CCCC1)c1ccccc1C(=O)N2C [Compound 26] | 100 | 100 | 82 |
